Reference: paper PMC11999305, “Biochemical characterization of zebrafish Paqr5b” (Biochemistry and Biophysics Reports, 2025)
Read-outs that look alike come from different tables or passages of the source.

Legend:
[1] = biological target: T1, zPaqr5b (zebrafish Paqr5b) (Danio rerio, UniProt Q6DC77); experiment: competition with [3H]-progesterone, filter binding
T1 construct: full-length CDS in pPICZalphaC; alpha-factor pre-pro signal N-terminal (major purified band 55 kDa keeps it, 45 kDa band Kex2-cut), C-terminal c-Myc and 6xHis kept; Pichia pastoris X-33; DDM-solubilized, purified by Ni-NTA and Sephacryl S-300
T1 sequence (Q6DC77 1-347): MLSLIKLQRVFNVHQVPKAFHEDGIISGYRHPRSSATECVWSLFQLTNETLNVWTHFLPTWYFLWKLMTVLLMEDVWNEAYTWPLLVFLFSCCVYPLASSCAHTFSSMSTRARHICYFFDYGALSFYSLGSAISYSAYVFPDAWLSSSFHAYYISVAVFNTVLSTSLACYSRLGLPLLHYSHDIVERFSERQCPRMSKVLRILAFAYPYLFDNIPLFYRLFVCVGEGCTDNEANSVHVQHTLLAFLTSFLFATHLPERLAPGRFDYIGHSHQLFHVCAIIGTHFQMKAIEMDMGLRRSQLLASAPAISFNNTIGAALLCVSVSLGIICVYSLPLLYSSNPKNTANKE
Description: competition with [3H]-progesterone, filter binding on zPaqr5b (zebrafish Paqr5b)

[2] = biological target: T1, zPaqr5b (zebrafish Paqr5b); experiment: radioligand saturation, filter binding, Scatchard

CC(=O)[C@H]1CC[C@H]2[C@@H]3CC[C@H]4C[C@H](O)CC[C@]4(C)[C@H]3CC[C@]12C [ALLO, allopregnanolone] gave an IC50 [1] of 25.2 nM.
C[C@@H](O)[C@@]1(O)CC[C@H]2[C@@H]3CCC4=CC(=O)CC[C@]4(C)[C@H]3CC[C@@]21C [DHP, 17α,20β-dihydroxy-4-pregnen-3-one] gave an IC50 ([1]; read-out: IC50) of 19.2 nM.
CC(=O)[C@H]1CC[C@H]2[C@@H]3CCC4=CC(=O)CC[C@]4(C)[C@H]3CC[C@]12C [P4, progesterone] was tested, and the IC50 ([1]; read-out: IC50) was 5.32 nM and the Kd [2] was 4.6 nM.
Compound CC(=O)[C@H]1CC[C@H]2[C@@H]3CC=C4C[C@@H](O)CC[C@]4(C)[C@H]3CC[C@]12C [Preg, pregnenolone] has an IC50 ([1]; read-out: IC50) of 38.3 nM.
